Data reported in paper PMC10408569, “Recruitment of hexahydroquinoline as anticancer scaffold targeting inhibition of wild and mutants EGFR (EGFR^WT, EGFR^T790M, and EGFR^L858R)” (Journal of Enzyme Inhibition and Medicinal Chemistry, 2023).

Key:
Experiment in all cases: NCI-60 anticancer screening (SRB)
Format in all cases: cell-based
OVCAR-3 = details: Homo sapiens; OVCAR-3, ovarian cancer; one dose 10 μM; read-out: Growth Inhibition Percentage (GI %)
CCRF-CEM = details: Homo sapiens, leukemia, one dose 10 μM, read-out: Growth Inhibition Percentage (GI %)
ACHN = details: Homo sapiens, renal cancer, one dose 10 μM, read-out: Growth Inhibition Percentage (GI %)
NCI-H322M = details: Homo sapiens, NSC lung cancer, one dose 10 μM, read-out: Growth Inhibition Percentage (GI %)
U251 = details: Homo sapiens, U-251; U251, CNS cancer; one dose 10 μM; read-out: Growth Inhibition Percentage (GI %)
NCI-H226 = details: Homo sapiens; NCI-H226, NSC lung cancer; one dose 10 μM; read-out: Growth Inhibition Percentage (GI %)
SK-MEL-2 = details: Homo sapiens; SK-MEL-2, melanoma; one dose 10 μM; read-out: Growth Inhibition Percentage (GI %)
CAKI-1 = details: Homo sapiens; CAKI-1, renal cancer; one dose 10 μM; read-out: Growth Inhibition Percentage (GI %)
SR = details: Homo sapiens, leukemia, one dose 10 μM, read-out: Growth Inhibition Percentage (GI %)
SK-MEL-28 = details: Homo sapiens; SK-MEL-28, melanoma; one dose 10 μM; read-out: Growth Inhibition Percentage (GI %)
TK-10 = details: Homo sapiens; TK-10, renal cancer; one dose 10 μM; read-out: Growth Inhibition Percentage (GI %)
SNB-19 = details: Homo sapiens; SNB-19, CNS cancer; one dose 10 μM; read-out: Growth Inhibition Percentage (GI %)
SK-OV-3 = details: Homo sapiens; SK-OV-3, ovarian cancer; one dose 10 μM; read-out: Growth Inhibition Percentage (GI %)
MDA-MB-231 = details: Homo sapiens; MDA-MB-231, breast cancer; one dose 10 μM; read-out: Growth Inhibition Percentage (GI %)
786-0 = details: Homo sapiens; 786-0, renal cancer; one dose 10 μM; read-out: Growth Inhibition Percentage (GI %)
SN 12C = details: Homo sapiens, SN12C; SN 12C, renal cancer; one dose 10 μM; read-out: Growth Inhibition Percentage (GI %)
SW-620 = details: Homo sapiens; SW-620, colon cancer; one dose 10 μM; read-out: Growth Inhibition Percentage (GI %)
OVCAR-5 = details: Homo sapiens; OVCAR-5, ovarian cancer; one dose 10 μM; read-out: Growth Inhibition Percentage (GI %)
T-47D = details: Homo sapiens, T47D, breast cancer, one dose 10 μM, read-out: Growth Inhibition Percentage (GI %)
EKVX = details: Homo sapiens, NSC lung cancer, one dose 10 μM, read-out: Growth Inhibition Percentage (GI %)
SK-MEL-5 = details: Homo sapiens; SK-MEL-5, melanoma; one dose 10 μM; read-out: Growth Inhibition Percentage (GI %)
A498 = details: Homo sapiens; A498, renal cancer; one dose 10 μM; read-out: Growth Inhibition Percentage (GI %)
SNB-75 = details: Homo sapiens; SNB-75, CNS cancer; one dose 10 μM; read-out: Growth Inhibition Percentage (GI %)
OVCAR-4 = details: Homo sapiens; OVCAR-4, ovarian cancer; one dose 10 μM; read-out: Growth Inhibition Percentage (GI %)
HCC-2998 = details: Homo sapiens; HCC-2998, colon cancer; one dose 10 μM; read-out: Growth Inhibition Percentage (GI %)
A549/ATCC = details: Homo sapiens; A549/ATCC, NSC lung cancer; one dose 10 μM; read-out: Growth Inhibition Percentage (GI %)
RPMI-8226 = details: Homo sapiens; RPMI-8226, leukemia; one dose 10 μM; read-out: Growth Inhibition Percentage (GI %)
MDA-MB-468 = details: Homo sapiens; MDA-MB-468, breast cancer; one dose 10 μM; read-out: Growth Inhibition Percentage (GI %)
LOX IMVI = details: Homo sapiens, melanoma, one dose 10 μM, read-out: Growth Inhibition Percentage (GI %)
BT-549 = details: Homo sapiens; BT-549, breast cancer; one dose 10 μM; read-out: Growth Inhibition Percentage (GI %)
HOP-92 = details: Homo sapiens; HOP-92, NSC lung cancer; one dose 10 μM; read-out: Growth Inhibition Percentage (GI %)
KM 12 = details: Homo sapiens, KM12; KM 12, colon cancer; one dose 10 μM; read-out: Growth Inhibition Percentage (GI %)
MALME-3M = details: Homo sapiens, melanoma, one dose 10 μM, read-out: Growth Inhibition Percentage (GI %)

## CCOC(=O)C1=C(N)N(c2ccc(C)cc2)C2=C(C(=O)CC(C)(C)C2)C1c1ccccc1OC (racemic) [6h, (±)-Ethyl 2-amino-4–(2-methoxyphenyl)-7,7-dimethyl-1–(4-methylphenyl)-5-oxo-1,4,5,6,7,8-hexahydroquinoline-3-carboxylate]
OVCAR-3
  inhibition at 10 µM: < 10%
CCRF-CEM
  inhibition at 10 µM: < 10%
ACHN
  inhibition at 10 µM: < 10%
NCI-H322M
  inhibition at 10 µM: < 10%
U251
  inhibition at 10 µM: < 10%
NCI-H226
  inhibition at 10 µM: < 10%
SK-MEL-2
  inhibition at 10 µM: < 10%
CAKI-1
  inhibition at 10 µM: < 10%
SR
  inhibition at 10 µM: < 10%
SK-MEL-28
  inhibition at 10 µM: < 10%
TK-10
  inhibition at 10 µM: < 10%
SNB-19
  inhibition at 10 µM: < 10%
SK-OV-3
  inhibition at 10 µM: < 10%
MDA-MB-231
  inhibition at 10 µM: < 10%
786-0
  inhibition at 10 µM: < 10%
SN 12C
  inhibition at 10 µM: < 10%
SW-620
  inhibition at 10 µM: < 10%
OVCAR-5
  inhibition at 10 µM: < 10%
T-47D
  inhibition at 10 µM: < 10%
EKVX
  inhibition at 10 µM: < 10%
SK-MEL-5
  inhibition at 10 µM: < 10%
A498
  inhibition at 10 µM: < 10%
SNB-75
  inhibition at 10 µM: < 10%
OVCAR-4
  inhibition at 10 µM: < 10%
HCC-2998
  inhibition at 10 µM: < 10%
A549/ATCC
  inhibition at 10 µM: < 10%
RPMI-8226
  inhibition at 10 µM: < 10%
MDA-MB-468
  inhibition at 10 µM: < 10%
LOX IMVI
  inhibition at 10 µM: < 10%
BT-549
  inhibition at 10 µM: < 10%
HOP-92
  inhibition at 10 µM: < 10%
KM 12
  inhibition at 10 µM: < 10%
MALME-3M
  inhibition at 10 µM: < 10%

## CCOC(=O)C1=C(N)N(c2ccccc2)C2=C(C(=O)CC(C)(C)C2)C1c1ccccc1OC (racemic) [6g, (±)-Ethyl 2-amino-4–(2-methoxyphenyl)-7,7-dimethyl-5-oxo-1-phenyl-1,4,5,6,7,8-hexahydroquinoline-3-carboxylate]
OVCAR-3
  inhibition at 10 µM: < 10%
CCRF-CEM
  inhibition at 10 µM: < 10%
ACHN
  inhibition at 10 µM: < 10%
NCI-H322M
  inhibition at 10 µM: < 10%
U251
  inhibition at 10 µM: < 10%
NCI-H226
  inhibition at 10 µM: < 10%
SK-MEL-2
  inhibition at 10 µM: < 10%
CAKI-1
  inhibition at 10 µM: < 10%
SR
  inhibition at 10 µM: < 10%
SK-MEL-28
  inhibition at 10 µM: < 10%
TK-10
  inhibition at 10 µM: < 10%
SNB-19
  inhibition at 10 µM: < 10%
SK-OV-3
  inhibition at 10 µM: < 10%
MDA-MB-231
  inhibition at 10 µM: < 10%
786-0
  inhibition at 10 µM: < 10%
SN 12C
  inhibition at 10 µM: < 10%
SW-620
  inhibition at 10 µM: < 10%
OVCAR-5
  inhibition at 10 µM: < 10%
T-47D
  inhibition at 10 µM: < 10%
EKVX
  inhibition at 10 µM: < 10%
SK-MEL-5
  inhibition at 10 µM: < 10%
A498
  inhibition at 10 µM: < 10%
SNB-75
  inhibition at 10 µM: < 10%
OVCAR-4
  inhibition at 10 µM: < 10%
HCC-2998
  inhibition at 10 µM: < 10%
A549/ATCC
  inhibition at 10 µM: < 10%
RPMI-8226
  inhibition at 10 µM: < 10%
MDA-MB-468
  inhibition at 10 µM: 11%
LOX IMVI
  inhibition at 10 µM: < 10%
BT-549
  inhibition at 10 µM: < 10%
HOP-92
  inhibition at 10 µM: < 10%
KM 12
  inhibition at 10 µM: < 10%
MALME-3M
  inhibition at 10 µM: < 10%

## CCOC(=O)C1=C(N)N(c2ccccc2)C2=C(C(=O)CC(C)(C)C2)C1c1cccnc1 (racemic) [12d]
OVCAR-3
  inhibition at 10 µM: < 10%
CCRF-CEM
  inhibition at 10 µM: < 10%
ACHN
  inhibition at 10 µM: < 10%
NCI-H322M
  inhibition at 10 µM: < 10%
U251
  inhibition at 10 µM: < 10%
NCI-H226
  inhibition at 10 µM: < 10%
SK-MEL-2
  inhibition at 10 µM: < 10%
CAKI-1
  inhibition at 10 µM: < 10%
SR
  inhibition at 10 µM: < 10%
SK-MEL-28
  inhibition at 10 µM: < 10%
TK-10
  inhibition at 10 µM: < 10%
SNB-19
  inhibition at 10 µM: < 10%
SK-OV-3
  inhibition at 10 µM: < 10%
MDA-MB-231
  inhibition at 10 µM: < 10%
786-0
  inhibition at 10 µM: < 10%
SN 12C
  inhibition at 10 µM: < 10%
SW-620
  inhibition at 10 µM: < 10%
OVCAR-5
  inhibition at 10 µM: < 10%
T-47D
  inhibition at 10 µM: < 10%
EKVX
  inhibition at 10 µM: < 10%
SK-MEL-5
  inhibition at 10 µM: < 10%
A498
  inhibition at 10 µM: < 10%
SNB-75
  inhibition at 10 µM: 17%
OVCAR-4
  inhibition at 10 µM: < 10%
HCC-2998
  inhibition at 10 µM: < 10%
A549/ATCC
  inhibition at 10 µM: < 10%
RPMI-8226
  inhibition at 10 µM: < 10%
MDA-MB-468
  inhibition at 10 µM: < 10%
LOX IMVI
  inhibition at 10 µM: < 10%
BT-549
  inhibition at 10 µM: < 10%
HOP-92
  inhibition at 10 µM: < 10%
KM 12
  inhibition at 10 µM: < 10%
MALME-3M
  inhibition at 10 µM: < 10%

## CCOC(=O)C1=C(N)N(c2ccc(C)cc2)C2=C(C(=O)CC(C)(C)C2)C1c1ccc(Cl)cc1 (racemic) [8d, (±)-Ethyl 2-amino-4–(4-chlorophenyl)-7,7-dimethyl-1–(4-methylphenyl)-5-oxo-1,4,5,6,7,8-hexahydroquinoline-3-carboxylate]
OVCAR-3
  inhibition at 10 µM: 16%
CCRF-CEM
  inhibition at 10 µM: < 10%
ACHN
  inhibition at 10 µM: < 10%
NCI-H322M
  inhibition at 10 µM: < 10%
U251
  inhibition at 10 µM: < 10%
NCI-H226
  inhibition at 10 µM: < 10%
SK-MEL-2
  inhibition at 10 µM: < 10%
CAKI-1
  inhibition at 10 µM: 30%
SR
  inhibition at 10 µM: < 10%
SK-MEL-28
  inhibition at 10 µM: < 10%
TK-10
  inhibition at 10 µM: < 10%
SNB-19
  inhibition at 10 µM: < 10%
SK-OV-3
  inhibition at 10 µM: < 10%
MDA-MB-231
  inhibition at 10 µM: < 10%
786-0
  inhibition at 10 µM: < 10%
SN 12C
  inhibition at 10 µM: < 10%
SW-620
  inhibition at 10 µM: 20%
OVCAR-5
  inhibition at 10 µM: < 10%
T-47D
  inhibition at 10 µM: 16%
EKVX
  inhibition at 10 µM: 15%
SK-MEL-5
  inhibition at 10 µM: 16%
A498
  inhibition at 10 µM: < 10%
SNB-75
  inhibition at 10 µM: 35%
OVCAR-4
  inhibition at 10 µM: < 10%
HCC-2998
  inhibition at 10 µM: < 10%
A549/ATCC
  inhibition at 10 µM: 14%
RPMI-8226
  inhibition at 10 µM: < 10%
MDA-MB-468
  inhibition at 10 µM: 18%
LOX IMVI
  inhibition at 10 µM: < 10%
BT-549
  inhibition at 10 µM: < 10%
HOP-92
  inhibition at 10 µM: < 10%
KM 12
  inhibition at 10 µM: < 10%
MALME-3M
  inhibition at 10 µM: < 10%
